From PMC6332318, “Synthetic Development of New 3-(4-Arylmethylamino)butyl-5-arylidene-rhodanines under Microwave Irradiation and Their Effects on Tumor Cell Lines and against Protein Kinases” (Molecules, 2015)

Experiments:
[1] = system: Caco 2 cells (differentiating colorectal adenocarcinoma); test: in vitro inhibition of cell proliferation / survival assay; assay type: cell-based; conditions: Homo sapiens; for IC50: 48 h, average of three assays, standard error ± 0.5 μM; for viability at 25 µM: measured at 25 μM after 48 h, single dose, triplicate
Protocol: (§1) As an initial effort to investigate their in vitro bioactivity, the new synthesized 3-(4-arylmethylamino)butyl-2-thioxo-1,3-thiazolidine-4-one 9a–n and also their precursors 6a–f were evaluated for their in vitro inhibition of cell proliferation. For this study, we used a panel of seven representative tumoral cell lines, namely HuH7 D12 (differential hepato cellular carcinoma), Caco 2 (differentiating colorectal adenocarcinoma), MDA-MBD231 ([…]), HCT 116 (actively proliferating colorectal adenocarcinoma), PC3 (prostate carcinoma), NCI-H727 (lung carcinoma), HaCat keratinocyte and, diploid skin fibroblasts as normal cell lines for control.
(§2) Skin diploid fibroblastic cells were provided by BIOPREDIC International Company (Rennes, France). Caco2 (Ref ECACC: 86010202), Huh-7D12 (Ref ECACC: 01042712), MDA-MB-231 (Ref ECACC: 92020424), HCT-116 (Ref ECACC: 91091005), PC3 (Ref ECACC: 90112714), NCI-H727 (Ref ECACC: 94060303) cell lines were obtained from the ECACC collection and HaCaT (from Cell Lines Service, Eppelheim, Germany). Cells were grown according to ECACC recommendations. The toxicity test of the compounds on these cells was as follows: 2 × 10^3 cells for HCT-116 cells or 4 × 10^3 for the other cells were seeded in 96 multiwell plates in triplicate and left for 24 h for attachment, spreading and growing. Then, cells were exposed for 48 h to increasing concentrations of the compounds, ranging from 0.1 to 25 μM in a final volume of 120 μL of culture medium. Cells were fixed in cooled solution of 90% ethanol/5% acetic acid, nuclei were stained with Hoechst 3342 (Sigma) and counted using automated imaging analysis (Cellomics Arrayscan VTI/HCS Reader, Thermo/Scientific, Waltham, MA, USA). The IC50 were graphically determined.

[2] = system: HCT 116 cells (actively proliferating colorectal adenocarcinoma); test: as above; assay type: cell-based; conditions: Homo sapiens; for IC50: 48 h, average of three assays, standard error ± 0.5 μM; for viability at 25 µM: measured at 25 μM after 48 h, single dose, triplicate
Protocol: as §1, §2

HaCat keratinocyte = test: as above; assay type: cell-based; conditions: for IC50: 48 h, average of three assays, standard error ± 0.5 μM; for viability at 25 µM: measured at 25 μM after 48 h, single dose, triplicate
Protocol: as §1, §2

[3] = system: Huh7 D12 cells (differential hepato cellular carcinoma); test: as above; assay type: cell-based; conditions: for IC50: Huh-7D12, 48 h, average of three assays, standard error ± 0.5 μM; for viability at 25 µM: Huh-7D12, measured at 25 μM after 48 h, single dose, triplicate
Protocol: as §1, §2

MDA-MB231 cells = test: as above; assay type: cell-based; conditions: Homo sapiens; for IC50: MDA-MB-231, 48 h, average of three assays, standard error ± 0.5 μM; for viability at 25 µM: MDA-MB-231, measured at 25 μM after 48 h, single dose, triplicate
Protocol: as §1, §2

[4] = system: NCI-H727 cells (lung carcinoma); test: as above; assay type: cell-based; conditions: Homo sapiens, NCI-H727; for IC50: 48 h, average of three assays, standard error ± 0.5 μM; for viability at 25 µM: measured at 25 μM after 48 h, single dose, triplicate, read-out: % of Survival
Protocol: as §1, §2

[5] = system: PC3 cells (prostate carcinoma); test: as above; assay type: cell-based; conditions: Homo sapiens; for IC50: PC-3, 48 h, average of three assays, standard error ± 0.5 μM; for viability at 25 µM: PC-3, measured at 25 μM after 48 h, single dose, triplicate
Protocol: as §1, §2

diploid skin fibroblasts = test: in vitro inhibition of cell proliferation / survival assay, normal cells control; assay type: cell-based; conditions: Skin fibroblast, Fibroblasts; for IC50: 48 h, average of three assays, standard error ± 0.5 μM; for viability at 25 µM: measured at 25 μM after 48 h, single dose, triplicate, read-out: % of Survival
Protocol: as §1, §2

[6] = system: panel of seven representative tumoral cell lines; test: in vitro inhibition of cell proliferation, whole panel; assay type: cell-based; conditions: all cell lines of the panel, without selectivity; read-out: IC50, moderate antitumor activities in all cell lines of the panel
Protocol: as §1
as §2, with “The toxicity test of the compounds on these cells was as follows: 2 × 10^3 cells for HCT-116 cells or 4 × 10^3 for the other cells were seeded in 96 multiwell plates in triplicate and left for 24 h for attachment, spreading and growing. Then, cells were exposed for 48 h to increasing concentrations of the compounds, ranging from 0.1 to 25 μM in a final volume of 120 μL of culture medium.” left out

Compound	IC50 [1]	viability at 25 µM [1]	IC50 [2]	viability at 25 µM [2]	IC50 (HaCat keratinocyte; Homo sapiens, HaCaT)	viability at 25 µM (HaCat keratinocyte; Homo sapiens)	IC50 [3]	viability at 25 µM [3]	IC50 (MDA-MB231 cells)	viability at 25 µM (MDA-MB231 cells)	IC50 [4]	viability at 25 µM [4]	IC50 [5]	viability at 25 µM [5]	IC50 (diploid skin fibroblasts)	viability at 25 µM (diploid skin fibroblasts)	melting point	IC50 [6]	IC50 (HaCat keratinocyte)
COc1cc(/C=C2\SC(=S)N(CCCCNCc3ccc4c(c3)OCCO4)C2=O)ccc1O [Compound 9n, (5Z)3-[4-(2,3-Dihydro-benzo[1,4]dioxin-6-ylmethylamino)butyl]-5-(4-hydroxy-3-methoxybenzylidene)-2-thioxo-1,3-thiazolidin-4-one]	16 µM	28%	21 µM	52%	15 µM	48%	15 µM	41%	15 µM	55%	17 µM	63%	19 µM	61%	> 25 µM	86%	202 to 204 °C		
O=C1/C(=C/c2ccc3c(c2)OCO3)SC(=S)N1CCCCNCc1ccc2c(c1)OCO2 [Compound 9h, (5Z)3-[4-(1,3-Benzodioxol-5-ylmethylamino)butyl]-5-(1,3-benzodioxol-5-ylmethylene)-2-thioxo-1,3-thiazolidin-4-one]	14 µM	42%	13 µM	65%	10 µM	10%	10 µM	7%	10 µM	49%	> 25 µM	43%	13 µM	51%	> 25 µM	80%	245 to 256 °C	10 to 17 µM	
O=C1/C(=C/c2ccc(O)cc2)SC(=S)N1CCCCNCc1ccc2c(c1)OCO2 [Compound 9j, (5Z)3-[4-(1,3-Benzodioxol-5-ylmethylamino)butyl]-5-(4-hydroxy-benzylidene)-2-thioxo-1,3-thiazolidin-4-one]	27 µM	41%	22 µM	40%	13 µM	21%	11 µM	22%	19 µM	42%	19 µM	33%	19 µM	38%	> 25 µM	77%			
O=C1/C(=C/c2ccc3c(c2)OCCO3)SC(=S)N1CCCCNCc1ccc2c(c1)OCO2 [Compound 9i, (5Z)3-[4-(1,3-Benzodioxol-5-ylmethylamino)butyl]-5-(2,3-dihydro-1,4-benzodioxin-6-ylmethylene)-2-thioxo-1,3-thiazolidin-4-one]	13 µM	17%	14 µM	8%	< 10 µM	6%	9 µM	5%	9 µM	17%	11 µM	9%	14 µM	39%	> 25 µM	54%	253 to 257 °C		8 µM
